Experimental findings from patent US10501516B2, “Peptide compound” (TAKEDA PHARMACEUTICAL COMPANY LIMITED, priority 2016, dated 2019) are described below.

Square brackets hold non-standard residues; d marks the D form. Side chains are listed from the residue outwards. Peptide text beside a SMILES is read from it. * marks the point of attachment. C18 diacid = O=C(O)CCCCCCCCCCCCCCCCC(=O)*; Phe(2-F) = N[C@@H](Cc1ccccc1F)C(=O)O; Palmitoyl = CCCCCCCCCCCCCCCC(=O)*; αMeF = C[C@](N)(Cc1ccccc1)C(=O)O; Iva = CC[C@](C)(N)C(=O)O; Aib = CC(C)(N)C(=O)O

One assay addresses T1, human NPY2R (Homo sapiens, UniProt P49146).
T1 construct: expressed in transfected cells; host or cells: CHO-K1 Cre-luc reporter cells (pAKKO1114/hNPY2R#481 No. 88 cells)
T1 sequence (P49146 1-381): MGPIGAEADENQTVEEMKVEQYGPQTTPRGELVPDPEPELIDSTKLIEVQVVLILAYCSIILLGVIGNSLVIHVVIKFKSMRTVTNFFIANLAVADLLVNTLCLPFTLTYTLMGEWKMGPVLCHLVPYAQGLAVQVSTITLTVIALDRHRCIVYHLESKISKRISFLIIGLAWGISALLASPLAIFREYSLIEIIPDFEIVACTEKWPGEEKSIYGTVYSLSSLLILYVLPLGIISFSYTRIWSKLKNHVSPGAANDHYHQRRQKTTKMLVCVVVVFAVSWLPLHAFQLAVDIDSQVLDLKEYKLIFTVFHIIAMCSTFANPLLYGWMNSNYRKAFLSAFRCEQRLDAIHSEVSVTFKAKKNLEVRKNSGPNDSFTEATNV
The assay is described as follows: Reporter assay of human NPY2R gene (agonist activity, decrease in intracellular cAMP as index). Format: cell-based. Particulars: Cre-luc reporter, hNPY2R CHO-K1 cells, forskolin 1.2 μM, 4 hours; read-out: Agonist activity (EC50) hY2R. The text has this: (§1) Evaluation of Agonist Activity Against Human NPY2R, Human GIPR, and Human GLP-1R Using Change in Intracellular cAMP Concentration as Index
The human NPY2R gene having a sequence identical to the sequence of GenBank Accession No. AC104407 was cloned into pAKKO1114 vector to prepare hNPY2R/pAKKO1114. Next, pGL4.29 (Promega) was introduced to CHO-K1 cells, which were then screened with hygromycin to construct Cre-luc reporter cells. These cells were cotransfected with hNPY2R/pAKKO1114 and pcDNA3.1 (Life Technologies Corp.), and the cells were screened with geneticin. Next, a cell line induced to express luciferase, i.e., pAKKO1114/hNPY2R#481 No. 88 cells, were selected from the obtained transformants by the addition of human PYY (3-36).
The pAKKO1114/hNPY2R#481 No. 88 cells were inoculated at a cell density of 25 μL/well (5,000 cells/well) to a 384-well white plate (Corning, 3570), and cultured overnight in Ham F12 medium containing 10% fetal bovine serum, 100 U/mL penicillin and 100 μg/mL streptomycin in a CO2 incubator of 37° C. On the next day, the medium was removed, and an assay medium (Ham F12 medium containing 0.1% BSA, 100 U/mL penicillin and 100 μg/mL streptomycin) containing forskolin (final concentration: 1.2 μM) was added at a concentration of 25 μL/well to the cells. Next, an assay medium containing a test compound was added at a concentration of 5 μL/well to the cells, and the resultant cells were incubated for 4 hours in a CO2 incubator of 37° C. to give the final concentration of 1 μM. SteadyGlo (Promega) was added thereto at a concentration of 30 μL/well, and the mixture was left standing for 20 minutes with light shielded. The luciferase activity was measured using a plate reader Envision (PerkinElmer). The luciferase activity from the addition of DMSO was defined as 100%, and the luciferase activity from the addition of 1 μM human PYY(3-36) instead of the test compound was defined as 0%. The NPY2R agonist activity was calculated with a decrease in intracellular cAMP concentration as an index.
(In a reporter assay the amount or activity of a reporter protein is the signal.)

For another assay, the system named is male C57BL/6J mouse. As to the kind of experiment: Evaluation of feeding suppressive action in mice. Format: in vivo. Conditions: 3-days cumulative food consumption vs solvent control. An outline of the steps:
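Male C57BL/6J mice, 8-9 weeks, ad libitum fed, given compound (30 or 100 nmol/2 mL in 10% DMSO saline) s.c. at 2 mL/kg once daily for 3 days. Cumulative 3-day food consumption measured by weighing; suppression rate (%) calculated relative to vehicle controls.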

For the next assay, the target named is T2, human GIPR (Homo sapiens, UniProt P48546).
T2 construct: expressed in transfected cells; host or cells: CHO-K1 Cre-luc reporter cells (hGIPR/CHO-K1, also called hGIPR/CRE-LUC/CHO-K1)
T2 sequence (P48546 22-466): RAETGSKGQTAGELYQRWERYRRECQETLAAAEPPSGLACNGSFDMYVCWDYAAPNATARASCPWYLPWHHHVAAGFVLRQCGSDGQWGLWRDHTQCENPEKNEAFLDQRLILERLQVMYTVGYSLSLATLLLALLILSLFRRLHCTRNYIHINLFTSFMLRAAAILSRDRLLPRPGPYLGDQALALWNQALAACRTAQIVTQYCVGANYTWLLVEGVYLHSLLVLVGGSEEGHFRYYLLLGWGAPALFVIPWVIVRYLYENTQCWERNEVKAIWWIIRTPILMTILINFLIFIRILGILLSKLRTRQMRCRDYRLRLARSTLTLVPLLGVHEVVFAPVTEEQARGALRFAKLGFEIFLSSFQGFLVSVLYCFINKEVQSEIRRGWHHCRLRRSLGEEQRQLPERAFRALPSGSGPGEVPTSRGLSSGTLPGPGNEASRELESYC
As to the kind of experiment: Reporter assay of human GIPR gene (agonist activity, intracellular cAMP as index). Particulars: Cre-luc reporter, hGIPR/CHO-K1 cells, 4 hours. Format: cell-based.
Source text: as §1
The human GIPR gene having a sequence identical to the sequence of GenBank Accession No. U39231 was cloned into pMSRα-neo vector to prepare hGIPR/pMSRα-neo. This vector was introduced to the Cre-luc reporter cells obtained in (1) to obtain transformants. Next, a cell line induced to express luciferase, i.e., hGIPR/CHO-K1 cells, were selected from the obtained transformants by the addition of GIP.
The hGIPR/CRE-LUC/CHO-K1 cells or the hGLP-1R/Crel cells were inoculated at a cell density of 25 μL/well (5,000 cells/well) to a 384-well white plate (Corning, 3570), and cultured overnight in Ham F12 medium containing 10% fetal bovine serum, 100 U/mL penicillin and 100 μg/mL streptomycin in a CO2 incubator of 37° C. On the next day, a medium containing a test compound was added at a concentration of 5 μL/well to the cells, and the resultant cells were incubated for 4 hours in a CO2 incubator of 37° C. to give the final concentration of 1 μM. SteadyGlo (Promega) was added thereto at a concentration of 30 μL/well, and the mixture was shaken with light shielded. After 30 minutes, the luciferase activity was measured using a plate reader Envision (PerkinElmer). For the GIPR agonist activity, the luciferase activity in the presence of 10 μM GIP was defined as 100%, and the luciferase activity from the addition of DMSO instead of the test compound was defined as 0%. The GIPR agonist activity was calculated with a rise in intracellular cAMP concentration as an index.

As usually defined, the EC50 is the concentration giving half of the maximal effect. Turning to `CC[C@H](C)[C@H](NC(=O)C(C)(C)NC(=O)[C@H](CCCCNC(=O)CNC(=O)CNC(=O)CNC(=O)CNC(=O)CCCCCCCCCCCCCCCCC(=O)O)NC(=O)[C@H](CC(=O)O)NC(=O)[C@H](CO)NC(=O)[C@@H](NC(=O)[C@](C)(Cc1ccccc1)NC(=O)[C@@H](NC(=O)CNC(=O)[C@H](CCC(=O)O)NC(=O)C(C)(C)NC(=O)[C@@H](N)Cc1ccc(O)cc1)[C@@H](C)O)[C@@H](C)O)C(=O)NC(C)(C)C(=O)N[C@@H](CC(C)C)C(=O)N[C@@H](CC(=O)O)C(=O)N[C@@H](CCCCN)C(=O)N[C@@H](CCC(N)=O)C(=O)N[C@@H](C)C(=O)N[C@@H](CCC(N)=O)C(=O)N[C@@](C)(CC)C(=O)N[C@@H](CCC(=O)O)C(=O)N[C@@H](Cc1ccccc1)C(=O)N[C@H](C(=O)N[C@@H](CCCNC(=N)N)C(=O)N[C@@H](Cc1c[nH]cn1)C(=O)N[C@@H](CC(C)C)C(=O)N[C@@H](CC(C)C)C(=O)N[C@@H](CC(N)=O)C(=O)N[C@@H](CCCCN)C(=O)NC(C)(C)C(=O)N[C@H](C(=O)N[C@@H](CCCNC(=N)N)C(=O)N[C@@H](CCC(N)=O)C(=O)N[C@@H](CCCNC(=N)N)C(=O)N[C@@H](Cc1ccccc1F)C(N)=O)[C@@H](C)O)C(C)C` [Example 2] (H-Y[Aib]EGT[αMeF]TSDK([Gly-Gly-Gly-Gly-C18 diacid])[Aib]I[Aib]LDKQAQ[Iva]EFVRHLLNK[Aib]TRQR[Phe(2-F)]-NH2), on human NPY2R, the concentration giving a half-maximal response (EC50) was found to be 2.1 nM. Also, the “Rate of feeding suppression (%)” value with male C57BL/6J mouse (100 nmol/kg s.c. once a day for 3 days) is reported as −77.3%. On human GIPR, `CCCCCCCCCCCCCCCC(=O)NCC(=O)NCC(=O)NCC(=O)NCC(=O)NCCCC[C@H](NC(=O)[C@H](CC(=O)O)NC(=O)[C@H](CO)NC(=O)[C@@H](NC(=O)[C@](C)(Cc1ccccc1)NC(=O)[C@@H](NC(=O)CNC(=O)[C@H](CCC(=O)O)NC(=O)C(C)(C)NC(=O)[C@@H](N)Cc1ccc(O)cc1)[C@@H](C)O)[C@@H](C)O)C(=O)N[C@@H](CO)C(=O)N[C@H](C(=O)NC(C)(C)C(=O)N[C@@H](CC(C)C)C(=O)N[C@@H](CCC(=O)O)C(=O)N[C@@H](CCCCN)C(=O)N[C@@H](CCC(N)=O)C(=O)N[C@@H](CCCNC(=N)N)C(=O)N[C@@H](CCC(N)=O)C(=O)N[C@@](C)(CC)C(=O)N[C@@H](CCC(=O)O)C(=O)N[C@@H](Cc1ccccc1)C(=O)N[C@H](C(=O)N[C@@H](CCCNC(=N)N)C(=O)N[C@@H](Cc1c[nH]cn1)C(=O)N[C@@H](CC(C)C)C(=O)N[C@@H](CC(C)C)C(=O)N[C@@H](CC(N)=O)C(=O)N[C@@H](CCCCN)C(=O)NC(C)(C)C(=O)N[C@H](C(=O)N[C@@H](CCCNC(=N)N)C(=O)N[C@@H](CCC(N)=O)C(=O)N[C@@H](CCCNC(=N)N)C(=O)N[C@@H](Cc1ccc(O)cc1)C(N)=O)[C@@H](C)O)C(C)C)[C@@H](C)CC` [Example 39] (H-Y[Aib]EGT[αMeF]TSDK([Gly-Gly-Gly-Gly-Palmitoyl])SI[Aib]LEKQRQ[Iva]EFVRHLLNK[Aib]TRQRY-NH2) yielded an EC50 of 0.041 nM. Moreover, the “Rate of feeding suppression (%)” value with male C57BL/6J mouse (30 nmol/kg s.c. once a day for 3 days) was −49.6%.

In the case of `CC[C@H](C)[C@H](NC(=O)C(C)(C)NC(=O)[C@H](CCCCNC(=O)CNC(=O)CNC(=O)CNC(=O)CNC(=O)CCCCCCCCCCCCCCCCC(=O)O)NC(=O)[C@H](CC(=O)O)NC(=O)[C@H](CO)NC(=O)[C@@H](NC(=O)[C@](C)(Cc1ccccc1)NC(=O)[C@@H](NC(=O)CNC(=O)[C@H](CCC(=O)O)NC(=O)C(C)(C)NC(=O)[C@@H](N)Cc1ccc(O)cc1)[C@@H](C)O)[C@@H](C)O)C(=O)NC(C)(C)C(=O)N[C@@H](CC(C)C)C(=O)N[C@@H](CC(=O)O)C(=O)N[C@@H](CCCCN)C(=O)N[C@@H](CCC(N)=O)C(=O)N[C@@H](CCCNC(=N)N)C(=O)N[C@@H](CCC(N)=O)C(=O)N[C@@](C)(CC)C(=O)N[C@@H](CCC(=O)O)C(=O)N[C@@H](Cc1ccccc1)C(=O)N[C@H](C(=O)N[C@@H](CCCNC(=N)N)C(=O)N[C@@H](Cc1c[nH]cn1)C(=O)N[C@@H](CC(C)C)C(=O)N[C@@H](CC(C)C)C(=O)N[C@@H](CC(N)=O)C(=O)N[C@@H](CCCCN)C(=O)NC(C)(C)C(=O)N[C@H](C(=O)N[C@@H](CCCNC(=N)N)C(=O)N[C@@H](CCC(N)=O)C(=O)N[C@@H](CCCNC(=N)N)C(=O)N[C@@H](Cc1ccc(O)cc1)C(N)=O)[C@@H](C)O)C(C)C` [Example 8] (H-Y[Aib]EGT[αMeF]TSDK([Gly-Gly-Gly-Gly-C18 diacid])[Aib]I[Aib]LDKQRQ[Iva]EFVRHLLNK[Aib]TRQRY-NH2), the 50% effective concentration (EC50) on human NPY2R was determined as 2.1 nM. On the same count and under the same terms, the figure for `CC[C@H](C)[C@H](NC(=O)[C@H](CO)NC(=O)[C@H](CCCCNC(=O)CNC(=O)CNC(=O)CNC(=O)CNC(=O)CCCCCCCCCCCCCCCCC(=O)O)NC(=O)[C@H](CC(=O)O)NC(=O)[C@H](CO)NC(=O)[C@@H](NC(=O)[C@](C)(Cc1ccccc1)NC(=O)[C@@H](NC(=O)CNC(=O)[C@H](CCC(=O)O)NC(=O)C(C)(C)NC(=O)[C@@H](N)Cc1ccc(O)cc1)[C@@H](C)O)[C@@H](C)O)C(=O)NC(C)(C)C(=O)N[C@@H](CC(C)C)C(=O)N[C@@H](CC(=O)O)C(=O)N[C@@H](CCCCN)C(=O)N[C@@H](CCC(N)=O)C(=O)N[C@@H](CCCNC(=N)N)C(=O)N[C@@H](CCC(N)=O)C(=O)N[C@@](C)(CC)C(=O)N[C@@H](CCC(=O)O)C(=O)N[C@@H](Cc1ccccc1)C(=O)N[C@H](C(=O)N[C@@H](CCCNC(=N)N)C(=O)N[C@@H](Cc1c[nH]cn1)C(=O)N[C@@H](CC(C)C)C(=O)N[C@@H](CC(C)C)C(=O)N[C@@H](CC(N)=O)C(=O)N[C@@H](CCCCN)C(=O)NC(C)(C)C(=O)N[C@H](C(=O)N[C@@H](CCCNC(=N)N)C(=O)N[C@@H](CCC(N)=O)C(=O)N[C@@H](CCCNC(=N)N)C(=O)N[C@@H](Cc1ccc(O)cc1)C(N)=O)[C@@H](C)O)C(C)C` [Example 16] (H-Y[Aib]EGT[αMeF]TSDK([Gly-Gly-Gly-Gly-C18 diacid])SI[Aib]LDKQRQ[Iva]EFVRHLLNK[Aib]TRQRY-NH2) is 2.6 nM.
